Reference: patent publication US20200206173A1, “A PERSONAL CARE COMPOSITION” (Conopco, Inc., d/b/a UNILEVER, priority 2017, published 2020)

Tested on: IL-6 in THP-1 monocytes
Test: Anti-inflammation efficacy in THP-1 in vitro assay: IL-6 in supernatant by ELISA after LPS stimulation
Assay type: cell-based
Settings: LPS 1 μg/mL, 24 hours, PMA-differentiated THP-1
Protocol: The following procedure was used to test the anti-inflammation efficacy of the various actives alone or in combination. • (i) 5×10^5 THP-1 monocytes were placed into 24-well plates, with 100 nM PMA in the culture media to differentiate the cell. • (ii) After 72 hours differentiation, treatments as follows were supplemented into fresh media and applied to the cells: • Example 1: Vehicle control with LPS (1 μg/mL) stimulation • Example 2,3: DHA at 100 or 20 μM alone with LPS (1 μg/mL) stimulation. • Example 4,5: Niacinamide at 10000 or 5000 μM alone with LPS (1 μg/mL) stimulation. • Example 6,7: Combinations of 100 μM DHA and either 10000 or 5000 μM of niacinamide. • Example 8: Combination of 20 μM DHA and 10000 μM of niacinamide. • (iii) After 24 hours incubation, the supernatants were collected. • (iv) Then IL-6 concentration was quantified in the supernatant by BD Elisa kit. • (v) IL-6 inhibition rate was calculated in comparison with vehicle control with LPS stimulation as a reference for each treatment.
The lower the percentage, the higher the anti-inflammatory potential. The CI value (combination index) of the various combinations is also less than 1 indicating synergism.
The data below is expressed in % IL-6 inhibition rate in Table-2 below. • (i) 5×10^5 THP-1 monocytes were placed into 24-well plates, with 100 nM PMA in the culture media to differentiate the cell. • (ii) After 72 hours differentiation, treatments as follows were supplemented into fresh media and applied to the cells: • Example 9: Vehicle control with LPS (1 μg/mL) stimulation • Example 10,11,12: DHA at 100, 50 or 25 μM alone with LPS (1 μg/mL) stimulation. • Example 13,14,15: Niacinamide at 5000, 2500 or 1250 μM alone with LPS (1 μg/mL) stimulation. • Example 16: Combinations of 100 μM DHA and 5000 μM of niacinamide. • Example 17: Combination of 50 μM DHA and 2500 μM of niacinamide. • Example 18: Combination of 25 μM DHA and 1250 μM of niacinamide. • (iii) After 24 hours incubation, the supernatants were collected. • (iv) Then IL-6 concentration was tested in the supernatant by BD Elisa Kit. • (v) IL-6 inhibition rate was calculated in comparison with vehicle control with LPS stimulation as reference, for each treatment.
Experiments were carried out at various concentrations of DHA and niacinamide at mole ratios outside the invention i.e., at 1:12.5. The data below is expressed in % IL-6 inhibition rate in Table-3 below: • (i) 5×10^5 THP-1 monocytes were placed into 24-well plates, with 100nM PMA in the culture media to differentiate the cell. • (ii) After 72 hours differentiation, treatments as follows were supplemented into fresh media and applied to the cells: • Example 20: Vehicle control with LPS (1 μg/mL) stimulation • Example 21,22,23: DHA at 100, 50 or 25 μM alone with LPS (1 μg/mL) stimulation. • Example 24,25,26: Niacinamide at […] alone with LPS (1 μg/mL) stimulation. • Example 27: Combinations of 100 μM DHA and 1250 μM of niacinamide. • Example 28: Combination of 50 μM DHA and 625 μM of niacinamide. • Example 29: Combination of 25 μM DHA and […] of niacinamide. • (iii) After 24 hours incubation the supernatants were collected. • (iv) Then IL-6 concentration was tested in the supernatant by BD Elisa Kit. • (v) IL-6 inhibition rate was calculated in comparison with vehicle control with LPS stimulation as reference, for each treatment.

SMILES | % of LPS (concentration of IL-6 as a % of that obtained for LPS) (317.5 μM of niacinamide alone) [%] | % of LPS (concentration of IL-6 as a % of that obtained for LPS) (625 μM of niacinamide alone) [%] | % of LPS (concentration of IL-6 as a % of that obtained for LPS) (1250 μM of niacinamide alone, listed as 15) [%] | % of LPS (concentration of IL-6 as a % of that obtained for LPS) (1250 μM of niacinamide alone, listed as 24) [%] | % of LPS (concentration of IL-6 as a % of that obtained for LPS) (2500 μM of niacinamide alone) [%] | % of LPS (concentration of IL-6 as a % of that obtained for LPS) (5000 μM of niacinamide alone, listed as 5) [%] | % of LPS (concentration of IL-6 as a % of that obtained for LPS) (5000 μM of niacinamide alone, listed as 13) [%] | % of LPS (concentration of IL-6 as a % of that obtained for LPS) (10000 μM of niacinamide alone) [%] | % of LPS (concentration of IL-6 as a % of that obtained for LPS) (20 μM of DHA alone) [%] | % of LPS (concentration of IL-6 as a % of that obtained for LPS) (25 μM of DHA alone) [%] | % of LPS (concentration of IL-6 as a % of that obtained for LPS) (50 μM of DHA alone) [%] | % of LPS (concentration of IL-6 as a % of that obtained for LPS) (100 μM of DHA alone) [%] | % of LPS (concentration of IL-6 as a % of that obtained for LPS) (100 μM of DHA alone, listed as 10) [%] | % of LPS (concentration of IL-6 as a % of that obtained for LPS) (100 μM of DHA alone, listed as 21) [%]
NC(=O)c1cccnc1 [Example 4, niacinamide] | 84.2 | 77.6 | 64.5 | 35.4 | 50.8 | 33.4 | 26.5 | 5.7 | – | – | – | – | – | –
CC/C=C\C/C=C\C/C=C\C/C=C\C/C=C\C/C=C\CCC(=O)O [Example 2, docosahexaenoic acid] | – | – | – | – | – | – | – | – | 58.5 | 65.5 | 38.7 | 14.7 | 8.3 | 8.3
